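48-hour exposure; five concentrations; linearly interpolated endpoints. At the GI50, growth is halved. TGI: total growth inhibition.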
What was measured:
Experiment in all cases: NCI-60 cell line screen, 48 h
786-0 renal = system: 786-0 renal
CAKI-1 renal = system: CAKI-1 renal
DU-145 prostate = system: DU-145 prostate
IGROV1 ovarian = system: IGROV1 ovarian
NCI-H522 lung = system: NCI-H522 lung
UACC-257 melanoma = system: UACC-257 melanoma
UACC-62 melanoma = system: UACC-62 melanoma
BT-549 breast = system: BT-549 breast
HCC-2998 colon = system: HCC-2998 colon
SK-MEL-28 melanoma = system: SK-MEL-28 melanoma
SNB-75 CNS = system: SNB-75 CNS

SMILES	TGI (786-0 renal) [µM]	TGI (CAKI-1 renal) [µM]	TGI (DU-145 prostate) [µM]	TGI (IGROV1 ovarian) [µM]	TGI (NCI-H522 lung) [µM]	TGI (UACC-257 melanoma) [µM]	TGI (UACC-62 melanoma) [µM]	TGI (BT-549 breast) [µM]	TGI (HCC-2998 colon) [µM]	TGI (SK-MEL-28 melanoma) [µM]	TGI (SNB-75 CNS) [µM]	GI50 (DU-145 prostate) [µM]	GI50 (IGROV1 ovarian) [µM]	GI50 (NCI-H522 lung) [µM]	GI50 (SK-MEL-28 melanoma) [µM]	GI50 (SNB-75 CNS) [µM]	GI50 (UACC-257 melanoma) [µM]	GI50 (UACC-62 melanoma) [µM]	GI50 (BT-549 breast) [µM]	GI50 (HCC-2998 colon) [µM]
C[C@H]1C[C@H]2[C@@H]3C(C)(C)O[C@]4(O)C(=O)[C@]5(O)[C@@H](C)CC[C@H]1[C@]25C(=O)[C@]34C	> 100	> 100	> 100	> 100	48	> 100	> 100													
CC(=O)Oc1c2oc3ccc(Cl)cc3c(=O)c2c(O)c2ccsc12	> 100	> 100	> 100			> 100	> 100	> 100	> 100	> 100	> 100									
O=c1[nH]nc(-c2ccccc2)n1/N=C/c1cccnc1	> 100	72.4	> 100	> 100	> 100	> 100		> 100	> 100	> 100	> 100									
OC(CCNCc1ccccc1)c1ccc2ccccc2c1 (centres undefined)	35.9	42.6	39.6	30.6	35	32.2	35.8		62.8	34	75.6									
COC(=O)C(CSSC[C@H](N/C(C)=C/C(C)=O)C(=O)OC)N/C(C)=C/C(C)=O (some centres undefined)	> 100	55.4	87.5	> 100	30	> 100	> 100			> 100	> 100									
Cc1c(NC(=O)CSC(=S)N2CCN(Cc3ccccc3)CC2)c(=O)n(-c2ccccc2)n1C	> 100	> 100	> 100	> 100	> 100	> 100		> 100	> 100	> 100										
CCOc1cc(C2CC(c3ccc(NS(=O)(=O)c4cc([N+](=O)[O-])ccc4C)cc3)=NN2c2ccc([N+](=O)[O-])cc2[N+](=O)[O-])ccc1O (centres undefined)	6.71	56.5	45.1	46.2	34.2	59.5		38.4		89.4	35.3									
O=C1C(=O)c2ccccc2C(O)=C1CCCc1ccc(Oc2ccccc2)cc1	35.4	70.5		84.3	34.2	23.9	15		74.3	> 100	73.9									
CC1(C)CC(C)(C)C1=NNC(N)=O	> 100	> 100	> 100	> 100	> 100	> 100	> 100		> 100	> 100	> 100									
COc1ccc(C(=O)/C=C/c2c(Cl)c3c(c(OC)c2Cl)OCC(=O)N3)cc1			> 100	> 100	3.24	> 100	3.59			5.22	9.71	3.17	3.28	1.55	2.18	2.23	2.98	1.68		
COc1ccc2c(c1)c(CC(=O)O)c(C)n2C(=O)c1ccc(Cl)cc1	> 100	> 100	> 100	> 100	> 100	> 100			> 100	> 100	> 100									
CC1CC/C(=C\c2ccc(Cl)cc2)C2OC(N)=C(C#N)C(c3ccc(Cl)cc3)=C12 (centres undefined)	26.5	31.2	34.5	26.5		53.4	31	30.7		37.5										
COc1cc(C(C)c2cc3c(cc2OCCO)OCO3)cc(OC)c1OC (centres undefined)		> 100		> 100	2.93	> 100	> 100		> 100		4.34									
Nc1ccccc1CC(O)C(=O)O (centres undefined)	> 100	> 100	> 100			> 100	> 100		> 100	> 100	> 100									
CCOC(=O)Cc1cc(OC)c(OC)cc1/C(Cl)=C(\C=O)c1ccc(OC)c(OC)c1		75.5		78.9		32.9	37.9			65.7	> 100									
N#Cc1c(-c2ccc(Cl)cc2)c2c(n(C3OC(CO)C(O)C(O)C3O)c1=S)CCC2 (centres undefined)	> 100	> 100	> 100	> 100		87.2	34	65	42.1	32.9	76.3									
O=C(Cn1c(C(=O)/C=C/c2cccs2)nc2ccccc21)c1ccc(Cl)cc1	32.8		> 100	77.7		58.1	> 100	63.6	29.8	> 100	> 100									
O=C1c2cc3c(cc2CC12Cc1ccc4c(c1C2=O)CCCC4)CCCC3 (centres undefined)	46.1	> 100	> 100	> 100	> 100	> 100			> 100	> 100	> 100									
Cc1cc(N2CCCC2)nc(N(CCNc2ccnc3cc(Cl)ccc23)Cc2ccco2)n1			> 100	> 100	> 100	> 100	78.2	> 100	56.7	> 100	60.7	6.72	2.5	3.59	3.94	10.7	10.8	4.11	5.74	4.58
CC(C)(Oc1ccc(Cl)cc1)C(=O)N(C(=O)N1CCC(c2ccccc2)CC1)c1ccccc1	> 100	> 100	> 100	> 100		> 100	> 100	> 95.8	> 100	> 100	> 83.2									
c1cn(C23C4C5C6C4C2C6C53)cn1 (centres undefined)	> 100		> 100	> 100	> 100	> 100		> 100	> 100	> 100	> 100									
